What all share (assay type): binding
The test system of experiment [1] is triplex DNA (NP-1/DNA-3/NP-2). Nature of the experiment: Colorimetric triplex binder assay: aggregation of NP-1, NP-2 gold nanoparticles and free DNA-3. To be noted: NP-1 and NP-2 1.5 nM each, DNA-3 150 nM, binder 5 μM, 10 mM PBS pH 7.0, NaCl 0.5 M, room temperature. From the text:
This method utilizes the aggregation-induced, red-to-blue color change associated with 13 nm gold (Au) nanoparticles. The assay consists of two sets of gold nanoparticles NP-1 and NP-2, and a free strand of DNA, DNA-3. […] DNA-3 is complementary to NP-1 with a two base dangling end to prevent noncross-linked NP-1 aggregation. When NP-1 and DNA-3 are combined, they form nonaggregate linking duplexes on the nanoparticle surface. […] However, introduction of a strong triplex binding agent, benzo[e]pyridoindole (BePl), stabilizes triplex formation through Hoogsteen-type Py-PaPy triplet base hydrogen bonds and induces nanoparticle aggregation resulting in a concomitant red-to-blue color change due to a red-shifting and dampening of the nanoparticle plasmon resonance (Scheme 1).
This assay is prepared by combining NP-1 and NP-2 (1.5 nM each) in a 1:1 molar ratio in 10 mM PBS buffer (pH=7.0, NaCl 0.5 M) with DNA-3 (150 nM) and BePl (5 μM). […] This stabilization results in a dramatic decrease in absorbance at 520 nm accompanied by a red-to-blue color change. Note that in the absence of DNA-3, NP-1 and NP-2 cannot form aggregates even in the presence of a strong triplex binder (FIG. 1B).
To further investigate the importance of the triplex structure and rule out aggregation due to duplex formation between the nanoparticles, the assay as set out in Example I was performed in the presence of seven additional duplex binders 4′,6-diamidino-2-phenylindole (DAPI), ellipticine (EIPT), amsacrine (AMSA), daunorubicin (DNR), anthraquinone-2-carboxylic acid (AQ2A), ethidium bromide (EB), and 9-aminoaclidine (9-AA)(5 μM).
In general, assay methods that can detect drug candidates by the naked eye, without resorting to any instrumentation, are convenient, and for this reason, an assay that could screen for triplex binders would be of great interest. At present, there are no assays that provide this capability. […] The mixtures of NP-1, NP-2 and DNA-3 containing the control and duplex intercalators remain red in color.

For experiment [2], the system named is duplex DNA between NP-1 and NP-2. The experiment can be described thus: Naked-eye color change of NP-1/NP-2 nanoassembly at specific temperatures. The settings on record: for color of nanoassembly: NP-1 and NP-2 1.5 nM each, intercalator 5 μM; for trend of intercalator binding affinities for DNA: from the color change with temperature. From the text: This method also utilizes the aggregation-induced, red-to-blue color change associated with 13 nm Au nanoparticles. Gold nanoparticles are functionalized with one of two complementary thiol-modified oligonucleotide strands and are denoted NP-1 and NP-2. When NP-1 and NP-2 are combined, they form aggregates through a reversible DNA hybridization process. This process results in a red-to-blue color change due to a red-shifting and dampening of the nanoparticle plasmon resonance. Increasing the temperature above the melting temperature of the DNA reverses the process, and the particles dissociate with a concomitant blue-to-red color change. […] This increased stability is reflected by an increase in melting temperature. Note that the shape and breadth of the transition is almost independent of the intercalator (FIG. 4). Therefore, by monitoring the blue-to-red color transition of hybridized oligonucleotide-modified Au nanoparticles in the presence of different compounds, the relative strength of intercalator binding can be determined with the naked-eye.
In general, assay methods that can detect drug candidates by the naked eye, without resorting to any instrumentation, are convenient, and for this reason, an assay that could seem for drug candidates based on DNA intercalation would be of great interest. […] As the temperature increases, the color change from blue to red occurs at specific temperatures. At 25° C. all eight cells (one control and seven intercalators) appear light blue/purple in color. At 30° C., the nanoassemblies containing the control and weak intercalators turn red in color leaving only the nanoassemblies containing DAPI, DNR, and EB as blue/purple.

Experiment [3] concerns duplex DNA on chip surface. The experiment can be described thus: Chip-based scanometric detection of duplex DNA binders (silver enhancement). To be noted: binder 5 μM. As for the experimental part:
N-Hydroxysuccinimide-activated Codelink glass microarray slides (Amersham, G. E. Healthcare) were arrayed with amine-terminated oligonucleotides (5′-TAA CAA TAA-A10-NH2-3′, Integrated DNA Technologies, Inc.) according to the manufacturer's protocol. The oligonucleotides were printed in triplicate using a GME 418 robotic pin-and-ring microarrayer (Affymetrix).
For scanometric detection of duplex or triplex DNA binding molecules, Au nanoparticles (1 nM) and DNA binding molecules (5 μM) in 10 mM PBS buffer of varying NaCl concentrations were added to the microarray slide under hybridization wells (Nanosphere, Inc.). For detection of triplex binders, 150 nM DNA-3 was added. DNA hybridization proceeded for 30 min (for duplex DNA binders) or 1 h (for triplex DNA binders) in a humidity chamber. After hybridization, the slides were washed three times with 0.5 M NaNO3 containing 0.02% Tween 20. The arrays were dried using a benchtop spinner. Silver enhancement solution (Nanosphere, Inc.) was added for Au-NP signal amplification (1 mL total volume/array, 1.5-min development time for duplex DNA binding molecules and 3 min for triplex binding molecules). The reaction was terminated by washing the slides with NANOpure® water and spin-drying. Light-scattering images from the silver-enhanced chips were recorded using the high-resolution Verigene ID system (Nanosphere, Inc.).
Capture strands of synthetic oligonucleotides are patterned on a glass chip using a microarrayer. The DNA chip is then exposed to DNA functionalized Au nanoparticles (complementary to the capture sequence) and a duplex DNA binder. […]
The hybridization of single stranded DNA to form duplex DNA is a reversible process and the stability of the duplex is affected by several factors such as temperature and salt concentration. […] Therefore, by performing the nanoparticle hybridization process in the presence of different duplex DNA binders as a function of temperature, the relative binding strength of duplex DNA binders can be determined.

Take `Nc1c2ccccc2nc2ccccc12` [9-AA, 9-aminoacridine]: the “nanoparticle aggregation (decrease in absorbance at 520 nm, red-to-blue color change)” value in experiment [1] is recorded as “no nanoparticle aggregation”.
On to `O=C(O)c1ccc2c(c1)C(=O)c1ccccc1C2=O` [AQ2A, anthraquinone-2-carboxylic acid], for which, in experiment [1], the “nanoparticle aggregation (decrease in absorbance at 520 nm, red-to-blue color change)” value was “no nanoparticle aggregation”.
Consider `N=C(N)c1ccc(-c2cc3ccc(C(=N)N)cc3[nH]2)cc1` [DAPI, 4′,6-diamidino-2-phenylindole], for which, in experiment [1], the “nanoparticle aggregation (decrease in absorbance at 520 nm, red-to-blue color change)” value is given as “no nanoparticle aggregation”. In addition, the color of nanoassembly entry is on record as “blue/purple” in experiment [2] (30° C.) and “turn red except the nanoassembly containing DAPI” in experiment [2] (40° C.). Further, in experiment [2], the “trend of intercalator binding affinities for DNA” value is “DAPI>DNR˜EB>other intercalators”. In addition, the “signal after silver enhancement” value is “leaving the intermediate and strong DNA binders” in experiment [3] (hybridization at 30° C.); “leaving only the strong duplex DNA binder” in experiment [3] (temperature further increased above 30° C.).
For `COc1cccc2c1C(=O)c1c(O)c3c(c(O)c1C2=O)C[C@@](O)(C(C)=O)C[C@@H]3O[C@H]1C[C@H](N)[C@H](O)[C@H](C)O1` [DNR, daunorubicin], the “nanoparticle aggregation (decrease in absorbance at 520 nm, red-to-blue color change)” value in experiment [1] is listed as “no nanoparticle aggregation”. Also, the color of nanoassembly result in experiment [2] (30° C.) is on record as “blue/purple”. In addition, the “trend of intercalator binding affinities for DNA” value in experiment [2] is recorded as “DAPI>DNR˜EB>other intercalators”. For the same compound, the “signal after silver enhancement” value in experiment [3] (hybridization at 30° C.) is “leaving the intermediate and strong DNA binders”.
For `Cc1c2ccncc2c(C)c2c1[nH]c1ccccc12` [EIPT, ellipticine], the “nanoparticle aggregation (decrease in absorbance at 520 nm, red-to-blue color change)” value in experiment [1] is “no nanoparticle aggregation”.
